Reference: the supplement of paper PMC10307832

Tests used:
Experiment in all cases: relative viability (nuclei count vs DMSO), 5 days (fraction); higher = more cells survive
LXF-289 = test system: LXF-289
Outline: (§1)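 One day after seeding in 1536-well plates, lung cancer cell lines were dosed by pin tool. Dosing was either single-drug or a fixed anchor-drug dose plus five library-drug doses (not always all listed) in √10 steps. After 5 days, nuclei were stained in one fix-and-stain step and counted on 4× images, and relative viability is the nuclei count of treated wells over that of vehicle wells, given as the median of duplicate plates.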

NCI-H661 = test system: NCI-H661
Outline: as §1

NCI-H441 = test system: NCI-H441
Outline: as §1

NCI-H1792 = test system: NCI-H1792
Outline: as §1

NCI-H727 = test system: NCI-H727
Outline: as §1

NCI-H520 = test system: NCI-H520
Outline: as §1

NCI-H1915 = test system: NCI-H1915
Outline: as §1

NCI-H2347 = test system: NCI-H2347
Outline: as §1

NCI-H322M = test system: NCI-H322M
Outline: as §1

RERF-LC-KJ = test system: RERF-LC-KJ
Outline: as §1

NCI-H1651 = test system: NCI-H1651
Outline: as §1

NCI-H1355 = test system: NCI-H1355
Outline: as §1

PC-14 = test system: PC-14
Outline: as §1

NCI-H1755 = test system: NCI-H1755
Outline: as §1

NCI-H460 = test system: NCI-H460
Outline: as §1

NCI-H596 = test system: NCI-H596
Outline: as §1

SK-MES-1 = test system: SK-MES-1
Outline: as §1

LCLC-103H = test system: LCLC-103H
Outline: as §1

NCI-H3122 = test system: NCI-H3122
Outline: as §1

NCI-H650 = test system: NCI-H650
Outline: as §1

NCI-H2170 = test system: NCI-H2170
Outline: as §1

SW 900 = test system: SW 900
Outline: as §1

## CC1(C)CCC(c2ccc(Cl)cc2)=C(CN2CCN(c3ccc(C(=O)NS(=O)(=O)c4ccc(N[C@H](CCN5CCOCC5)CSc5ccccc5)c(S(=O)(=O)C(F)(F)F)c4)cc3)CC2)C1 [Navitoclax] + CC(=O)Nc1cccc(-n2c(=O)n(C3CC3)c(=O)c3c(Nc4ccc(I)cc4F)n(C)c(=O)c(C)c32)c1 [Trametinib] (partner 0.02 µM)
LXF-289; first compound 0.005 µM
  relative viability: 0.649
LXF-289; first compound 0.01581 µM
  relative viability: 0.709
LXF-289; first compound 0.05 µM
  relative viability: 0.633
LXF-289; first compound 0.1581 µM
  relative viability: 0.69
LXF-289; first compound 0.5 µM
  relative viability: 0.692
NCI-H661; first compound 0.005 µM
  relative viability: 0.516
NCI-H661; first compound 0.01581 µM
  relative viability: 0.702
NCI-H661; first compound 0.05 µM
  relative viability: 0.551
NCI-H661; first compound 0.1581 µM
  relative viability: 0.533
NCI-H661; first compound 0.5 µM
  relative viability: 0.538
NCI-H441; first compound 0.005 µM
  relative viability: 0.534
NCI-H441; first compound 0.01581 µM
  relative viability: 0.616
NCI-H441; first compound 0.05 µM
  relative viability: 0.349
NCI-H441; first compound 0.1581 µM
  relative viability: 0.448
NCI-H441; first compound 0.5 µM
  relative viability: 0.553
NCI-H1792; first compound 0.005 µM
  relative viability: 0.458
NCI-H1792; first compound 0.01581 µM
  relative viability: 0.631
NCI-H1792; first compound 0.1581 µM
  relative viability: 0.376
NCI-H1792; first compound 0.5 µM
  relative viability: 0.388
NCI-H727; first compound 0.005 µM
  relative viability: 0.406
NCI-H727; first compound 0.01581 µM
  relative viability: 0.393
NCI-H727; first compound 0.05 µM
  relative viability: 0.378
NCI-H727; first compound 0.1581 µM
  relative viability: 0.399
NCI-H727; first compound 0.5 µM
  relative viability: 0.403
NCI-H520; first compound 0.005 µM
  relative viability: 0.673
NCI-H520; first compound 0.01581 µM
  relative viability: 0.653
NCI-H520; first compound 0.05 µM
  relative viability: 0.631
NCI-H520; first compound 0.1581 µM
  relative viability: 0.603
NCI-H520; first compound 0.5 µM
  relative viability: 0.693
NCI-H1915; first compound 0.005 µM
  relative viability: 0.287
NCI-H1915; first compound 0.01581 µM
  relative viability: 0.327
NCI-H1915; first compound 0.05 µM
  relative viability: 0.297
NCI-H1915; first compound 0.1581 µM
  relative viability: 0.314
NCI-H1915; first compound 0.5 µM
  relative viability: 0.331
NCI-H2347; first compound 0.005 µM
  relative viability: 0.296
NCI-H2347; first compound 0.01581 µM
  relative viability: 0.314
NCI-H2347; first compound 0.05 µM
  relative viability: 0.26
NCI-H2347; first compound 0.1581 µM
  relative viability: 0.32
NCI-H2347; first compound 0.5 µM
  relative viability: 0.259
NCI-H322M; first compound 0.005 µM
  relative viability: 0.538
NCI-H322M; first compound 0.01581 µM
  relative viability: 0.533
NCI-H322M; first compound 0.05 µM
  relative viability: 0.453
NCI-H322M; first compound 0.1581 µM
  relative viability: 0.484
NCI-H322M; first compound 0.5 µM
  relative viability: 0.539
RERF-LC-KJ; first compound 0.005 µM
  relative viability: 0.823
RERF-LC-KJ; first compound 0.01581 µM
  relative viability: 0.847
RERF-LC-KJ; first compound 0.05 µM
  relative viability: 0.969
RERF-LC-KJ; first compound 0.1581 µM
  relative viability: 0.938
RERF-LC-KJ; first compound 0.5 µM
  relative viability: 0.985
NCI-H1651; first compound 0.005 µM
  relative viability: 0.822
NCI-H1651; first compound 0.01581 µM
  relative viability: 0.921
NCI-H1651; first compound 0.05 µM
  relative viability: 0.61
NCI-H1651; first compound 0.1581 µM
  relative viability: 0.771
NCI-H1651; first compound 0.5 µM
  relative viability: 0.864
NCI-H1355; first compound 0.005 µM
  relative viability: 0.446
NCI-H1355; first compound 0.01581 µM
  relative viability: 0.468
NCI-H1355; first compound 0.05 µM
  relative viability: 0.408
NCI-H1355; first compound 0.1581 µM
  relative viability: 0.431
NCI-H1355; first compound 0.5 µM
  relative viability: 0.458
PC-14; first compound 0.005 µM
  relative viability: 0.804
PC-14; first compound 0.01581 µM
  relative viability: 1.21
PC-14; first compound 0.05 µM
  relative viability: 0.808
PC-14; first compound 0.1581 µM
  relative viability: 0.801
PC-14; first compound 0.5 µM
  relative viability: 0.695
NCI-H1755; first compound 0.005 µM
  relative viability: 0.743
NCI-H1755; first compound 0.01581 µM
  relative viability: 0.774
NCI-H1755; first compound 0.05 µM
  relative viability: 0.662
NCI-H1755; first compound 0.1581 µM
  relative viability: 0.764
NCI-H1755; first compound 0.5 µM
  relative viability: 0.802
NCI-H460; first compound 0.005 µM
  relative viability: 0.135
NCI-H460; first compound 0.01581 µM
  relative viability: 0.237
NCI-H460; first compound 0.05 µM
  relative viability: 0.153
NCI-H460; first compound 0.1581 µM
  relative viability: 0.188
NCI-H460; first compound 0.5 µM
  relative viability: 0.215
NCI-H596; first compound 0.005 µM
  relative viability: 0.796
NCI-H596; first compound 0.01581 µM
  relative viability: 1.22
NCI-H596; first compound 0.05 µM
  relative viability: 0.693
NCI-H596; first compound 0.1581 µM
  relative viability: 0.79
NCI-H596; first compound 0.5 µM
  relative viability: 0.776
SK-MES-1; first compound 0.005 µM
  relative viability: 0.516
SK-MES-1; first compound 0.01581 µM
  relative viability: 0.681
SK-MES-1; first compound 0.05 µM
  relative viability: 0.547
SK-MES-1; first compound 0.1581 µM
  relative viability: 0.591
SK-MES-1; first compound 0.5 µM
  relative viability: 0.654
LCLC-103H; first compound 0.005 µM
  relative viability: 0.637
LCLC-103H; first compound 0.01581 µM
  relative viability: 0.731
LCLC-103H; first compound 0.05 µM
  relative viability: 0.704
LCLC-103H; first compound 0.1581 µM
  relative viability: 0.691
LCLC-103H; first compound 0.5 µM
  relative viability: 0.685
NCI-H3122; first compound 0.005 µM
  relative viability: 0.243
NCI-H3122; first compound 0.01581 µM
  relative viability: 0.221
NCI-H3122; first compound 0.05 µM
  relative viability: 0.217
NCI-H3122; first compound 0.1581 µM
  relative viability: 0.222
NCI-H3122; first compound 0.5 µM
  relative viability: 0.211
NCI-H650; first compound 0.005 µM
  relative viability: 0.907
NCI-H650; first compound 0.01581 µM
  relative viability: 1.2
NCI-H650; first compound 0.05 µM
  relative viability: 0.872
NCI-H650; first compound 0.1581 µM
  relative viability: 1.09
NCI-H650; first compound 0.5 µM
  relative viability: 0.878
NCI-H2170; first compound 0.005 µM
  relative viability: 0.926
NCI-H2170; first compound 0.01581 µM
  relative viability: 0.984
NCI-H2170; first compound 0.05 µM
  relative viability: 0.892
NCI-H2170; first compound 0.1581 µM
  relative viability: 0.887
NCI-H2170; first compound 0.5 µM
  relative viability: 0.874
SW 900; first compound 0.005 µM
  relative viability: 0.706
SW 900; first compound 0.01581 µM
  relative viability: 0.981
SW 900; first compound 0.1581 µM
  relative viability: 0.828
SW 900; first compound 0.5 µM
  relative viability: 0.81
